Several values for one entry are separate records, joined by “and”; a condition that tells them apart may be missing. Equal values may be shown once. Read-outs that look alike come from different tables or passages of the source.
Assays:
[1] = Toxicity on long-term maintenance of ^2H2O body water enrichment in humans; format: in vivo, human; details: body water enrichment 1-10% (0.5%-15%) maintained for weeks or months; >100 people
Description: (§1) Relatively high body water enrichments of ^2H2O (e.g., 1-10% of the total body water is labeled) may be achieved using the techniques of the invention. Water enrichments of ^2H2O of 0.5%-15% may also be achieved using the techniques described herein. […] This finding in a large number of human subjects (>100 people) is contrary to previous concerns about vestibular toxicities at high doses of ^2H2O. Applicant has discovered that as long as rapid changes in body water enrichment are minimized (e.g., by initial administration in small, divided doses), high body water enrichments of ^2H2O can be maintained with a minimum toxicities. For example, the low expense of commercially available ^2H2O allows long-term maintenance of enrichments in the 1-5% range at relatively low expense (e.g., calculations reveal a lower cost for 2 months labeling at 2% ^2H2O enrichment, and thus 7-8% enrichment in the alanine precursor pool, than for 12 hours labeling of ^2H-leucine at 10% free leucine enrichment, and thus 7-8% enrichment in leucine precursor pool for that period).

[2] = in vivo
Description: as §1

[3] = Body ^2H2O enrichment (saliva samples) in subjects ingesting 70% ^2H2O over eight weeks; format: in vivo; details: individual human subjects; oral 70% ^2H2O, eight-week study; one value per subject (251498, 251515, 251598, 251748, 251771)
Procedure: The protocol for incorporation of ^2H into human mitochondrial DNA from muscle biopsy samples is illustrated in the experimental design of FIG. 3d. Five human subjects enrolled as out-patients ingested 70 ml of 70% ^2H2O three times a day for 5 days then twice a day for 5 days; then ingested 50 ml twice a day thereafter for the remainder of the eight-week study period. Every two weeks, subjects gave a saliva sample (for measurement of body ^2H2O enrichment). At week 8, an open muscle biopsy was performed under surgical conditions. Mitochondria were isolated from excised muscle tissue (1 g) by ultracentrifugation, using methods well known in the art. Isolation of mitochondrial (mt) DNA and phospholipids (PL) were by procedures well known in the art. Measurement of fractional synthesis of mt PL was as described in the general methods, supra and in Collins et al., supra. Measured ^2H-incorporation (EM1=excess abundance of M+1 mass isotopomer of the molecule) and fractional synthesis (f) of mt DNA and mt PL are shown in Table 1.

SMILES: [2H]O[2H] [^2H2O, deuterated water]
- evidence of toxicity [1]: without any evidence of toxicity
- evidence of toxicity [2]: without any evidence of toxicity
- Body ^2H2O (%) [3]: 0.5% and 1.7% and 1.1% and 2.0% and 1.0%

Reference: patent US20070248540A1, “Biochemical methods for measuring metabolic fitness of tissues or whole organisms” (The Regents of the University of California, priority 2002, published 2007)
